Laboratory results taken from patent US20240050434A1, “HORMAD1 THERAPEUTICS” (Royal Cancer Hospital, priority 2020, published 2024).
“Also recorded” adds a separate entry of the source.

What was measured:
Type in all cases: cell-based
[1] = test system: SUM159 cells expressing a doxycycline-inducible HORMAD1 construct; assay: Clonogenic survival assay (SRB) in SUM159 cells with doxycycline-inducible HORMAD1; conditions: increasing doses, 10-14 days, normalised to vehicle
Procedure: Cell confluence was analysed every 6 hours for 10 days, using incucyte software. Data are from 3 biological replicates and analysed using a two-way ANOVA. […] RPE1 cells expressing a doxycycline-inducible HORMAD1 expression construct were exposed to doxycycline or vehicle (H2O) and were exposed to 20 nM of the Aurora B inhibitor, AZD1152-HQPA. Cell confluence was analysed every 6 hours for 10 days, using incucyte software. Data are from 3 biological replicates and analysed using a two-way ANOVA. […] 7-10 days post drugging, cells were fixed, stained with SRB, and colonies were counted using Cell Profiler. […] 10 days post drugging, cells were fixed, stained with SRB, and colonies were counted using Cell Profiler. […] 7-10 days post drugging, cells were fixed, stained with SRB, and colonies were counted using Cell Profiler. […] 10 days post drugging, cells were fixed, stained with SRB, and colonies were counted using Cell Profiler.
RPE1 and SUM159 cells expressing a doxycycline-inducible HORMAD1 construct were treated with doxycycline or vehicle. […] Surviving fractions were calculated (normalised to vehicle treated cells). […] Data from 3 replicas was analysed using 2-way ANOVA. […] Surviving fractions were calculated (normalised to vehicle treated cells). Data from 4 replicas was analysed using 2-way ANOVA. […]

[2] = test system: RPE1 cells expressing a doxycycline-inducible HORMAD1 expression construct; assay: Mitotic slippage by time-lapse microscopy in nocodazole-arrested RPE1 cells; conditions: 300 nM nocodazole arrest, then 100-200 nM reversine, 50 nM BOS172722 or AZD1152-HQPA
Procedure: A. Diagram of experimental outline. Cells were exposed to doxycycline for 3 days, arrested in mitosis using 300 nM nocodazole or 100 nM Paclitaxel. Mitotic cells were filmed every 4 minutes for 1200 minutes, and the time cells remained arrested in mitosis before exiting via mitotic slippage was assessed. […] RPE1 cells expressing a doxycycline-inducible HORMAD1 cDNA expression construct were exposed to doxycycline or vehicle (H2O) for three days at which point cells were exposed to 300 nM nocodazole and filmed every 4 minutes using time-lapse microscopy. The time individual cells remained arrested in mitosis was quantified and presented as the % of cells arrested in mitosis at each time point. Data reflects a total of 125 cells from 3 biological repeats and was analysed using Mantel-Cox test. C. […] The time individual cells remained arrested in mitosis was quantified and presented as the % of cells arrested in mitosis at each time point. Data reflects a total of 125 cells from 3 biological repeats and was analysed using Mantel-Cox test. […] H1299 cells expressing two individual, doxycycline-inducible, shRNA particles targeting HORMAD1 as well as a non-targeting control were grown for three days in the presence of doxycycline at which point cell lysates were generated and analysed by SDS-PAGE and western blotting using anti-HORMAD1 and anti-β-ACTIN antibodies. […] The time individual cells remained arrested in mitosis was quantified and presented as the % of cells arrested in mitosis at each time point. Data reflects a total of 90 cells from 3 biological repeats and was analysed using Mantel-Cox test with Bonferonni correction. […] Mitotic cells were filmed every 2 minutes for 400 minutes, and the time taken before cells exited mitosis via mitotic slippage was assessed. […] The time individual cells remained arrested in mitosis was quantified and presented as the % of cells arrested in mitosis at each time point. […] The time individual cells remained arrested in mitosis was quantified and presented as the % of cells arrested in mitosis at each time point. […]

[3] = test system: MDA-157, MDA-468, MDA436 TNBC cell-lines and MCF10A, MTSV1 non-transformed breast cell-lines; assay: SRB viability in HORMAD1-positive TNBC cell-lines versus non-transformed breast cell-lines; conditions: increasing doses, 10-14 days post drugging
Procedure: To confirm that endogenous HORMAD1 expression in cancer cells (as opposed to transgene-driven HORMAD1 expression) also causes BUB1 inhibitor sensitivity, increasing doses of BUB1 inhibitor was added to 3 HORMAD1-positive triple-negative breast cancer cell-lines (TNBC) and 2 HORMAD1-negative non-transformed breast cell-lines.
Three HORMAD1 positive TNBC cell-lines (MDA-157, MDA-468, MDA436) and two non-transformed breast cell-lines (MCF10A and MTSV1) were treated with increasing doses of BUB1 inhibitor BAY-1816032. 10-14 days post drugging, cell viability was estimated by staining cells with SRB and measuring absorbance. Surviving fractions were calculated (normalised to vehicle treated cells). Data is from 3 replicas, analysed using 2-way ANOVA.

[4] = test system: TP53 null MCF10A cells expressing a doxycycline-inducible HORMAD1 construct (3D spheroids); assay: 3D spheroid viability (cell titre glo) in TP53 null MCF10A cells with inducible HORMAD1; conditions: increasing doses, 14 days post drugging
Procedure: TP53 null MCF10A cells expressing a doxycycline-inducible HORMAD1 construct were treated with doxycycline or vehicle. Cells were grown in 3D spheroid cultures. Following doxycycline induction, increasing doses of BUB1 inhibitor BAY-1816032 was added to the cells. 14 days post drugging, cell viability was estimated using cell titre glo reagent. Surviving fractions were calculated (normalised to vehicle treated cells). Data is from 3 replicas, analysed using 2-way ANOVA.

Structure (SMILES) | clonogenic survival / sensitivity of HORMAD1 expressing versus HORMAD1-negative SUM159 cells [1] | mitotic slippage / mitotic exit in HORMAD1 induced RPE1 cells [2] | surviving fraction, HORMAD1-positive TNBC cell-lines compared with HORMAD1-negative non-transformed cell-lines [3] | growth inhibition of HORMAD1 expressing versus HORMAD1-negative spheroids [4]
CCN(CCO)CCCOc1ccc2c(Nc3cc(CC(=O)Nc4cccc(F)c4)[nH]n3)ncnc2c1 [AZD1152-HQPA] | reduced clonogenic survival; also recorded: increased Aurora B inhibitor sensitivity | Very similar results |  | 
COc1cnccc1Nc1nc(-c2nn(Cc3c(F)cc(OCCO)cc3F)c3ccccc23)ncc1OC [BAY-1816032] |  |  | significant differences | more effectively inhibited
